In patent US9708311B2, “Benzimidazole derivatives as EP4 antagonists” (BAYER PHARMA AKTIENGESELLSCHAFT, priority 2012, dated 2017):
Like-named read-outs stand apart in the source and are kept apart here.

Assays:
human EP4 receptor = human EP4 receptor (Homo sapiens (Human), UniProt P35408); test: Test for antagonism of the human EP4 receptor signal (cAMP HTRF); assay type: cell-based
Outline: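 Antagonism of PGE2-stimulated cAMP formation in hEP4-R cells with IBMX present. After lysis, cAMP measured by competitive TR-FRET (Eu cryptate anti-cAMP antibody vs cAMP-d2), 20 min at room temperature. Read-out is the 665/620 nm emission ratio; antagonism appears as restored FRET signal.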

[1] = tested on: macrophages in the peritoneal fluid; test: Flow cytometry of peritoneal lavage cells (macrophage activation); assay type: in vivo; settings: mouse endometriosis model, p.o., vs vehicle control, p<0.001
Procedure: For the obtainment of the cells from the peritoneum, 3 ml of cold PBS (phosphate buffered saline) were injected into the peritoneum of the dead animal and removed again after gentle massage of the abdomen. The cells from this peritoneal lavage were spun down at 1400 rpm for 2 min and taken up again in 500 μl of PBS containing 2% FCS (fetal calf serum). 100 μl of this cell suspension were used for each stain with different antibody-fluorochrome conjugate mixes. The cells were spun down for this purpose in 96 hole plates again and resuspended in 50 μl of an antibody solution in the 1:300 diluted anti CD11b-Pacific Blue (eBioscience), 1:200 diluted anti F4/80-PE (eBioscience), 1:200 diluted anti Gr1-APC-Cy7 (BD Pharmigen), 1:400 diluted anti CD11c-PE-Cy7 (BD Pharmigen) and 1:400 diluted anti MHCII-FITC (BD Pharmigen) and stored on ice in the dark for 20 min. Subsequently, 150 μl of PBS containing 2% FCS were added and the cells were once again centrifuged down at 1400 rpm for 2 min. The 200 μl of supernatant were discarded and the cells were washed with 200 μl of PBS containing 2% FCS and once again centrifuged off.
Subsequently, they were taken up in 200 μl of PBS containing 2% FCS and 1:5000 diluted 5 mg/ml DAPI (Sigma) and the fluorescence intensity of the individual fluorochromes per cell was measured with a FACS Canto II flow cytometer. […]

endometrial lesions = test: Syngeneic mouse endometriosis model (preventive); assay type: in vivo; settings: 28 days
Procedure: The syngeneic induction of endometriosis in mice is a common animal model for testing the efficacy of substances for the treatment of endometriosis. Endometriosis is induced experimentally by transplantation of murine uterus fragments of a donor mouse of the same strain into the abdominal cavity of the recipient mouse. Female mice of the balb/c strain were used. The cycle of the mouse is determined by means of a vaginal smear. Donor animals which are in oestrus are used exclusively. The donor animals are sacrificed and the uterine horns are removed and subsequently cut open longitudinally. From the uteri, using a punch 2 mm bioptates are punched out, which are subsequently sewn into the recipient animal. The recipient animals are anaesthetised and subjected to a laparotomy. During the intervention, 6 uterus punchings of a donor mouse are sewn onto the parietal peritoneum of the recipient mouse. […] After 28 days, the animals are opened up in a final laparotomy and the lesion sizes are determined. The grown lesions are photographically recorded and the area is measured by means of AxioVision Software. […] In the s.c. approach (FIG. 1), the substance according to the invention (Example 4) was tested in 4 different dose schemes and the lesion size was assessed in comparison to the animals treated with vehicle. […]

[2] = cells expressing hEP4, PGE2 at EC80 (0.4 nM), cAMP TR-FRET, read-out: Antagonism hEP4 IC50

Chain of human EP4 receptor (P35408 whole entry): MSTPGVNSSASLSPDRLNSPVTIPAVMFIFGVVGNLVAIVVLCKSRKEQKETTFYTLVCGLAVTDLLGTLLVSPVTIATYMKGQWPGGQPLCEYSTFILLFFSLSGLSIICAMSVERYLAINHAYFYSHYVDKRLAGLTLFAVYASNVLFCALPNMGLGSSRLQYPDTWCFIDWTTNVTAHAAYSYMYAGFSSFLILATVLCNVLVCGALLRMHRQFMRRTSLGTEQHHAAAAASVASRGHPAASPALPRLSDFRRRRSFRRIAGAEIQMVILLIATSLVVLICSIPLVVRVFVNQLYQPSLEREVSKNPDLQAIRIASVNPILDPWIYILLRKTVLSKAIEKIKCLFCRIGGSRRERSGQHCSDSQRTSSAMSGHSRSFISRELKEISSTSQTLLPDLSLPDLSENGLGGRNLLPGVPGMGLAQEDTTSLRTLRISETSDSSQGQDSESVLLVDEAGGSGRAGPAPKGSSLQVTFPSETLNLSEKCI

Structure (SMILES)	IC50 (human EP4 receptor; [2]) [nM]	also measured
CCn1c2ccccc2c2cc(-c3nc4cc(C(=O)O)ccc4n3CCOC)ccc21 [Example 4, 2-(9-Ethyl-9H-carbazol-3-yl)-1-(2-methoxyethyl)-1H-benzimidazole-5-carboxylic acid]	5.59	IC50 (human EP4 receptor; antagonism test Example 3.2.1, read-out: IC50 value at the EP4 receptor (antagonism test)): ~6 nM; number of activated macrophages in the peritoneal fluid (FACS) [1]: highly significant reduced number of activated macrophages; reduction of the endometrial lesions, oral administration (endometrial lesions; p.o., vs control, p<0.01): significant reduction of the endometrial lesions; reduction of the endometrial lesions, subcutaneous administration (endometrial lesions; s.c., 0.4, 3, 10 and 50 mg/kg/day, vs vehicle): significant reduction of the endometrial lesions
CCn1c2ccccc2c2cc(-c3nc4cc(C(=O)NS(=O)(=O)Cc5ccc(Cl)cc5)ccc4n3CCOC)ccc21 [Example 64, N-[(4-Chlorobenzyl)sulphonyl]-2-(9-ethyl-9H-carbazol-3-yl)-1-(2-methoxyethyl)-1H-benzimidazole-5-carboxamide]	138	–
CCn1c2ccccc2c2cc(-c3nc4cc(C(=O)NS(=O)(=O)c5ccc(Cl)cc5)ccc4n3CCOC)ccc21 [Example 49, N-[(4-Chlorophenyl)sulphonyl]-2-(9-ethyl-9H-carbazol-3-yl)-1-(2-methoxyethyl)-1H-benzimidazole-5-carboxamide]	61.5	–

More lines, main results first:

IC50 (human EP4 receptor; [2]) [nM]	Structure (SMILES)	also measured
178	CCn1c2ccncc2c2cc(-c3nc4cc(C(=O)O)ccc4n3CC3CC3)ccc21 [Example 109, 1-(Cyclopropylmethyl)-2-(5-ethyl-5H-pyrido[4,3-b]indol-8-yl)-1H-benzimidazole-5-carboxylic acid]	–
433	CCn1c2ccccc2c2cc(-c3nc4c(C)c(C(=O)O)ccc4n3CC3CC3)cnc21 [Example 107, 1-(Cyclopropylmethyl)-2-(9-ethyl-9H-pyrido[2,3-b]indol-3-yl)-4-methyl-1H-benzimidazole-5-carboxylic acid]	–
4.16	CCn1c2ccc(Cl)cc2c2cc(-c3nc4c(C)c(C(=O)O)ccc4n3CCOC)ccc21 [Example 142, 2-(6-Chloro-9-ethyl-9H-carbazol-3-yl)-1-(2-methoxyethyl)-4-methyl-1H-benzimidazole-5-carboxylic acid]	–
195	CCn1c2ccccc2c2cc(-c3nc4cc(C(=O)O)ccc4n3C)ccc21 [Example 94, 2-(9-Ethyl-9H-carbazol-3-y1)-1-methyl-1 H-benzimidazole-5-carboxylic acid]	–
